Data published in US12447170B2, “Use of maribavir in treatment regimens” (priority 2021, dated 2025).

Key:
[1] = set-up: species or system human; conditions: in vivo
Source text: Accumulated data have shown that maribavir is metabolized primarily in the liver, and renal clearance is a minor route (representing less than 5 percent). VP 44469 (N-dealkylated Maribavir) was the principal metabolite of maribavir in both urine and feces. In plasma, unchanged maribavir and VP 44469 represented approximately 69% and 9.8% of total radioactivity, respectively. The hepatic metabolism of maribavir was primarily driven by cytochrome P450s. CYP3A4 and CYP1A2 were responsible for 70 to 85% and 15 to 30% of the CYP-driven pathways, respectively. Glucuronidation accounted for less than 20% of metabolism.
Distribution models evaluated included a full PBPK model and a minimal PBPK model, both of which consider liver and intestinal metabolism. Mass balance data from the [^14C] ADME study indicated a fraction absorbed of 0.83 or greater following oral administration of 400 mg dose of maribavir. Absorption models evaluated included a simple first-order absorption model and a more mechanistic “Advanced Dissolution Absorption and Metabolism” (ADAM) model.

[2] = Drug interaction summary: effect of co-administered drugs on maribavir pharmacokinetics (Tables 1-A, 1-B); conditions: concomitant drug with maribavir; observed and predicted
Source text: Drug interaction studies were summarized based on Example 2 and other available data (e.g., in vitro and clinical data).

[3] = Drug interaction summary: effect of maribavir 400 mg twice daily on co-administered drug pharmacokinetics (Tables 1-A, 1-C); assay type: in vivo, human; conditions: for Effect on Concentration (of concomitant drug): concomitant drug with maribavir, observed and predicted; for Geometric Mean Ratio of co-administered drug PK with/without maribavir (No Effect = 1.00), AUC / Geometric Mean Ratio of co-administered drug PK with/without maribavir (No Effect = 1.00), Cmax: digoxin 0.5 mg single dose
[4] = in the presence of 400 mg twice daily maribavir, tacrolimus stable dose twice daily

Compound	Effect on Concentration (of maribavir) [2]	Effect on Concentration (of concomitant drug) [3]	other results
Nc1nc2cc(Cl)c(Cl)cc2n1[C@H]1O[C@@H](CO)[C@H](O)[C@@H]1O [VP 44469, N-dealkylated Maribavir]	–	–	share of total radioactivity in plasma [1]: ~9.8%
O=C1NC(=O)C(c2ccccc2)(c2ccccc2)N1 [Phenytoin, reference compound]	↓Maribavir	–	–
CO[C@H]1C[C@@H]2CC[C@@H](C)[C@@](O)(O2)C(=O)C(=O)N2CCCC[C@H]2C(=O)O[C@H]([C@H](C)C[C@@H]2CC[C@@H](O)[C@H](OC)C2)CC(=O)[C@H](C)/C=C(\C)[C@@H](O)[C@@H](OC)C(=O)[C@H](C)C[C@H](C)/C=C/C=C/C=C/1C [Sirolimus]	–	↑Sirolimus	–
C[C@H]1O[C@@H](O[C@H]2[C@@H](O)C[C@H](O[C@H]3[C@@H](O)C[C@H](O[C@H]4CC[C@@]5(C)[C@H](CC[C@@H]6[C@@H]5C[C@@H](O)[C@]5(C)[C@@H](C7=CC(=O)OC7)CC[C@]65O)C4)O[C@@H]3C)O[C@@H]2C)C[C@H](O)[C@@H]1O [digoxin]	–	↑digoxin	Geometric Mean Ratio of co-administered drug PK with/without maribavir (No Effect = 1.00), AUC [3, 4]: 1.21; Geometric Mean Ratio of co-administered drug PK with/without maribavir (No Effect = 1.00), Cmax [3, 4]: 1.25
NC(=O)N1c2ccccc2C=Cc2ccccc21 [Carbamazepine, reference compound]	↓Maribavir	–	–
CO[C@H]1/C=C/O[C@@]2(C)Oc3c(C)c(O)c4c(O)c(c(/C=N/N5CCN(C)CC5)c(O)c4c3C2=O)NC(=O)/C(C)=C\C=C\[C@H](C)[C@H](O)[C@@H](C)[C@@H](O)[C@@H](C)[C@H](OC(C)=O)[C@@H]1C [Rifampin, reference compound]	↓Maribavir	–	–
CO[C@H]1C[C@@H]2CC[C@@H](C)[C@@](O)(O2)C(=O)C(=O)N2CCCC[C@H]2C(=O)O[C@H]([C@H](C)C[C@@H]2CC[C@@H](OCCO)[C@H](OC)C2)CC(=O)[C@H](C)/C=C(\C)[C@@H](O)[C@@H](OC)C(=O)[C@H](C)C[C@H](C)/C=C/C=C/C=C/1C [Everolimus]	–	↑Everolimus	–
CCC1(c2ccccc2)C(=O)NC(=O)NC1=O [Phenobarbital, reference compound]	↓Maribavir	–	–
CO[C@H]1/C=C/O[C@@]2(C)Oc3c(C)c(O)c4c(c3C2=O)C2=NC3(CCN(CC(C)C)CC3)NC2=C(NC(=O)/C(C)=C\C=C\[C@H](C)[C@H](O)[C@@H](C)[C@@H](O)[C@@H](C)[C@H](OC(C)=O)[C@@H]1C)C4=O [Rifabutin, reference compound]	↓Maribavir	–	–
C=CC[C@@H]1/C=C(\C)C[C@H](C)C[C@H](OC)[C@H]2O[C@@](O)(C(=O)C(=O)N3CCCC[C@H]3C(=O)O[C@H](/C(C)=C/[C@@H]3CC[C@@H](O)[C@H](OC)C3)[C@H](C)[C@@H](O)CC1=O)[C@H](C)C[C@@H]2OC [Tacrolimus]	–	↑Tacrolimus	increase of tacrolimus exposure by maribavir ([3]; co-administration with maribavir): 51%; Geometric Mean Ratio of co-administered drug PK with/without maribavir (No Effect = 1.00), Ctrough [3, 4]: 1.57; Geometric Mean Ratio of co-administered drug PK with/without maribavir (No Effect = 1.00), AUC [3, 4]: 1.51; Geometric Mean Ratio of co-administered drug PK with/without maribavir (No Effect = 1.00), Cmax [3, 4]: 1.38
